Experimental data from patent US20260048051A1, “TREATMENT OF INFLAMMATORY BOWEL DISEASE” (Atomwise Inc., priority 2024, published 2026).

Each molecule was assayed against T1, TYK2-JH2 (Homo sapiens, UniProt P29597) (assay: TYK2-JH2 HTRF binding assay (ligand efficiency)). Conditions: calculated from binding-assay IC50 (Equation 1).
T1 construct: TYK JH2 enzyme mix (ChemPartner: CP20210818A-BV); purchased ChemPartner CP20210818A-BV
Procedure: The following example describes the TYK2-JH2 HTRF binding assay used to determine the ligand efficiency of the TYK2 inhibitors.
To calculate ligand efficiency, Equation 1 is applied: […]
in which IC50 comes from the binding assay used to determine compound potency.
TYK JH2 enzyme mix (ChemPartner: CP20210818A-BV), tracer (ChemPartner: CP-0029472-051) and mAb Anti-6HIS Tb cryptate Gold (Cisbio: Cat No. 61HI2TLA) mix were prepared in assay buffer (10 mM MgCl2, 20 mM HEPES pH 7.5, 0.01% Triton X-100, 1 mM DTT). Compounds diluted in DMSO (Final Concentrations 0.1 to 0.000005 [μM]) and enzyme mix (0.5 nM Final Concentration) were added to 384 well plates, briefly centrifuged and incubated at room temperature for 10 minutes. After incubation, tracer mix (Tracer-35 nM final concentration); (MAb Anti-6HIS Tb cryptate Gold-0.5× final)) was added, briefly centrifuged then incubate at room temperature 60 minutes. After incubation, plates were read by Envision TR-FRET (Ex340/Em495/520) protocol (PerkinElmer-Envision 2104 multilabel plate reader).

T1 sequence (P29597 589-875 limits assumed): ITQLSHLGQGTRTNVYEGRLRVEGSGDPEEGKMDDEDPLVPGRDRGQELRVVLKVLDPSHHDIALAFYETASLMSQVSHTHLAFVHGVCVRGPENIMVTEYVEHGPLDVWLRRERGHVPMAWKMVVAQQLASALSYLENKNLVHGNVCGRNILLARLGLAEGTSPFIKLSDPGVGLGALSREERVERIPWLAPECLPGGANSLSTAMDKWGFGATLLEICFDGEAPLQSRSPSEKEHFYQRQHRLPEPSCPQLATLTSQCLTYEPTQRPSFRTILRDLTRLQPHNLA

Row | SMILES | Ligand Efficiency
1 | CS(=O)(=O)c1cccnc1Nc1cc(Nc2ccc(NC3CC(F)(F)C3)cn2)ncn1 [Compound 37, N^4-(5-(3,3-difluorocyclobutylamino)pyridin-2-yl)-N^6-(3-(methylsulfonyl)pyridin-2-yl)pyrimidine-4,6-diamine] | ††† (†††: >0.39)
2 | CC(C)[C@@H](c1ccc(Nc2cc(Nc3ncccc3S(C)(=O)=O)ncn2)nc1)N1CC2(COC2)C1 [Compound 13, (S)—N^4-(5-(2-methyl-1-(2-oxa-6-azaspiro[3.3]heptan-6-yl)propyl)pyridine-2-yl)-N^6-(3-(methylsulfonyl)pyridin-2-yl)pyrimidine-4,6-diamine] | †† (††: 0.37-0.39)
3 | CS(=O)(=O)c1ccccc1Nc1cc(Nc2ccc(C3(NC4COC4)CC3)cn2)ncn1 [Compound 41, N^4-(2-(methylsulfonyl)phenyl)-N^6-(5-(1-(oxetan-3-ylamino)cyclopropyl)pyridin-2-yl)pyrimidine-4,6-diamine] | †† (††: 0.37-0.39)
4 | C[C@H](c1ccc(Nc2cc(Nc3ncccc3S(C)(=O)=O)ncn2)nc1)N1CCC2(CCOCC2)C1 [Compound 30, (R)—N^4-(5-(1-(8-oxa-2-azaspiro[4.5]decan-2-yl)ethyl)pyridin-2-yl)-N^6-(3-(methylsulfonyl)pyridin-2-yl)pyrimidine-4,6-diamine] | †† (††: 0.37-0.39)
5 | C[C@H]1CN(C2CC2)CCN1c1ccc(Nc2cc(Nc3ncccc3S(C)(=O)=O)ncn2)nc1 [Compound 8, (S)—N^4-(5-(4-cyclopropyl-2-methylpiperazin-1-yl)pyridin-2-yl)-N^6-(3-(methylsulfonyl)pyridin-2-yl)pyrimidine-4,6-diamine] | ††† (†††: >0.39)
6 | Cc1cc(Nc2cc(Nc3ncccc3S(C)(=O)=O)ncn2)ncc1NC1(C)COC1 [Compound 23, N^4-(4-methyl-5-((3-methyloxetan-3-yl)amino)pyridin-2-yl)-N-(3-(methylsulfonyl)pyridin-2-yl)pyrimidine-4,6-diamine] | ††† (†††: >0.39)
7 | CS(=O)(=O)c1ccccc1Nc1cc(Nc2ccc3c(n2)CCCC3N2CC3(CCOCC3)C2)ncn1 (stereo not drawn) [Compound 27, N^4-(5-(7-oxa-2-azaspiro[3.5]nonan-2-yl)-5,6,7,8-tetrahydroquinolin-2-yl)-N^6-(2-(methylsulfonyl)phenyl)pyrimidine-4,6-diamine] | † (†: < 0.37)
8 | Cc1cccc(Nc2cc(Nc3ccccc3S(C)(=O)=O)nc(C)n2)n1 [Compound 56, 2-methyl-N^4-(6-methylpyridin-2-yl)-N^6-(2-(methylsulfonyl)phenyl) pyrimidine-4,6-diamine] | † (†: < 0.37)
9 | CC(NC1CCOC1)c1ccc(Nc2cc(Nc3ccccc3S(C)(=O)=O)ncn2)nc1 (stereo not drawn) [Compound 26, N^4-(2-(methylsulfonyl)phenyl)-N^6-(5-(1-(tetrahydrofuran-3-ylamino)ethyl)pyridin-2-yl)pyrimidine-4,6-diamine] | †† (††: 0.37-0.39)
10 | CC(c1ccc(Nc2cc(Nc3ncccc3S(C)(=O)=O)ncn2)nc1)N1CCCC1 (stereo in doubt) [Compound 15, (R)—N^4-(3-(methylsulfonyl)pyridin-2-yl)-N^6-(5-(1-(pyrrolidin-1-yl)ethyl)pyridin-2-yl)pyrimidine-4,6-diamine] | ††† (†††: >0.39)
11 | Cc1cccnc1Nc1cc(Nc2ccccc2C(N)=O)ncn1 [Compound 68, 2-((6-((3-methylpyridin-2-yl)amino)pyrimidin-4-yl)amino) benzamide] | ††† (†††: >0.39)
12 | C[C@@H](c1ccc(Nc2cc(Nc3ncc(Cl)cc3S(C)(=O)=O)ncn2)nc1)N1CC2(COC2)C1 [Compound 14, (S)—N^4-(5-(1-(2-oxa-6-azaspiro[3.3]heptan-6-yl)ethyl)pyridin-2-yl)-N^6-(5-chloro-3-(methylsulfonyl)pyridin-2-yl)pyrimidine-4,6-diamine] | ††† (†††: >0.39)
13 | CS(=O)(=O)c1ccccc1Nc1cc(Nc2ccc(CNC3CCOC3)cn2)ncn1 (stereo not drawn) [Compound 28, N^4-(2-(methylsulfonyl)phenyl)-N^6-(5-((tetrahydrofuran-3-ylamino)methyl)pyridin-2-yl)pyrimidine-4,6-diamine] | †† (††: 0.37-0.39)
14 | CS(=O)(=O)c1ccccc1Nc1cc(Nc2ccc(N3CCOCC3)cn2)ncn1 [Compound 42, N^4-(2-(methylsulfonyl)phenyl)-N^6-(5-morpholinopyridin-2-yl) pyrimidine-4,6-diamine] | ††† (†††: >0.39)
15 | Cc1cccc(Nc2cc(Nc3ncccc3C(N)=O)ncn2)n1 [Compound 52, 2-((6-((6-methylpyridin-2-yl)amino)pyrimidin-4-yl)amino) nicotinamide] | ††† (†††: >0.39)
16 | Cc1ccnc(Nc2cc(Nc3ccccc3C(N)=O)ncn2)c1 [Compound 45, 2-((6-((4-methylpyridin-2-yl)amino)pyrimidin-4-yl)amino) benzamide] | ††† (†††: >0.39)
17 | CS(=O)(=O)c1cccnc1Nc1cc(Nc2ccc3c(n2)CC[C@@H]3N2CC3(COC3)C2)ncn1 [Compound 9, N^4-((5S)-5-(2-oxa-6-azaspiro[3.3]heptan-6-yl)-6,7-dihydro-5H-cyclopenta[b]pyridin-2-yl)-N^6-(3-(methylsulfonyl)pyridin-2-yl)pyrimidine-4,6-diamine] | ††† (†††: >0.39)
18 | Cc1cccc(Nc2cc(Nc3cnccc3C(N)=O)ncn2)n1 [Compound 61, 3-((6-((6-methylpyridin-2-yl)amino)pyrimidin-4-yl)amino) isonicotinamide] | ††† (†††: >0.39)
19 | Cc1cccc(Nc2cc(Nc3ccncc3C(N)=O)ncn2)n1 [Compound 51, 4-((6-((6-methylpyridin-2-yl)amino)pyrimidin-4-yl)amino) nicotinamide] | ††† (†††: >0.39)
20 | CS(=O)(=O)c1ccccc1Nc1cc(NC(=O)C2CC2)ncn1 [Compound 69, N^4-(cyclopropylcarbonyl)-N^6-(2-(methylsulfonyl)phenyl)pyrimidine-4,6-diamine] | ††† (†††: >0.39)
21 | Cc1nccc(Nc2cc(Nc3ccccc3C(N)=O)ncn2)n1 [Compound 48, 2-((6-((2-methylpyrimidin-4-yl)amino)pyrimidin-4-yl)amino) benzamide] | ††† (†††: >0.39)
22 | CC(c1ccc(Nc2cc(Nc3ncccc3S(C)(=O)=O)ncn2)nc1)N1CC2(CCOCC2)C1 (stereo in doubt) [Compound 31, (R)—N^4-(5-(1-(7-oxa-2-azaspiro[3.5]nonan-2-yl)ethyl)pyridine-2-yl)-N^6-(3-(methylsulfonyl)pyridin-2-yl)pyrimidine-4,6-diamine] | †† (††: 0.37-0.39)
23 | CC1(CNc2ccc(Nc3cc(Nc4ncccc4S(C)(=O)=O)ncn3)nc2)COC1 [Compound 36, N^4-(5-(((3-methyloxetan-3-yl)methyl)amino)pyridin-2-yl)-N^6-(3-(methylsulfonyl)pyridin-2-yl)pyrimidine-4,6-diamine] | ††† (†††: >0.39)
24 | Cn1cc(-c2ccnc(Nc3cc(Nc4ccc(NC5(C)COC5)cn4)ncn3)c2S(C)(=O)=O)cn1 [Compound 72, N^4-(4-(1-methyl-1H-pyrazol-4-yl)-3-(methylsulfonyl)pyridin-2-yl)-N^6-(5-(3-methyloxetan-3-ylamino)pyridin-2-yl)pyrimidine-4,6-diamine] | † (†: < 0.37)
